Reference: US10813906B2, “Use of ferrous amino acid chelate to treat infection by enteropathogen and to enhance growth performance” (Profeat Biotechnology Co., Ltd., priority 2018, dated 2020)

Experiments:
[1] = test system: Escherichia coli; experiment: Enteropathogen infection in chickens, real time PCR of feces: Escherichia coli; format: in vivo, Taiwan black-feather country chickens; settings: Week 10, feces from cloaca
[2] = Growth performance of chickens fed mixed feed for 12 weeks; format: in vivo, Taiwan black-feather country chickens; settings: for Body weight: mean ± S.D., 20 g of Fe per 1000 kg of mixed feed; for ADG (average daily gain) / FE (feed efficiency, ratio of total feed intake to total body weight): Week 12, 20 g of Fe per 1000 kg of mixed feed
From the text: The experimental chickens were randomly divided into a control group and an experimental group (n=40/group), and each group was placed in a pen with a size of 6.5 m^2. Water was provided ad libitum for all of the experimental chickens. […] The mixed feed supplied to the control group was made from a basal diet and a ferrous sulfate (20 g of Fe per 1000 kg of the mixed feed). The mixed feed supplied to the experimental group was made from the basal diet and the ferrous amino acid chelate prepared as described in the section, entitled “1. […] The body weight of each chicken was determined before and after supply of the mixed feed. Subsequently, average daily gain (ADG) of the chickens in each group was calculated based on the body weight and the feed intake. Feed efficiency (FE) defined as a ratio of total feed intake to total body weight was also calculated. The experimental data were analyzed via Student's t-test so as to assess the difference between the test groups. Statistical significance is indicated by p<0.05.

[3] = test system: Clostridium perfringens; format: in vivo, Taiwan black-feather country chickens; settings: Week 6; feces from cloaca, real time PCR
[4] = Growth performance of postweaning piglets fed mixed feed for 8 weeks; format: in vivo; settings: for ADFI (average daily feed intake) / ADG (average daily gain) / FE (feed efficiency, ratio of ADFI to ADG) / Total feed intake: age 4 to 12 weeks; for Body weight: mean ± S.D.; for Total feed intake: whole group
From the text: About 1000 male piglets and 1000 female piglets (purchased from HAIFUNG ranch, Yunlin County, Taiwan and bred in the nursery) were used in the following experiment. The experimental piglets were randomly divided into an experimental group and a control group, and sufficient water and feed were supplied to the experimental piglets. […] The mixed feed supplied to the experimental group was made from the basal diet and the ferrous amino acid chelate prepared as described in the section, entitled “1. […] Subsequently, average daily gain (ADG) and average daily feed intake (ADFI) of the postweaning piglets in each group were calculated based on the body weight and the total feed intake. Feed efficiency (FE) defined as a ratio of ADFI to ADG was also calculated. The experimental data were expressed as mean±S.D., and were analyzed via Student's t-test so as to assess the difference between the test groups. Statistical significance is indicated by p<0.05.

[5] = test system: Salmonella spp.; experiment: Enteropathogen infection in chickens, real time PCR of feces: Salmonella spp.; format: in vivo, Taiwan black-feather country chickens; settings: Week 10, feces from cloaca
From the text: Taiwan black-feather country chickens (1 day of age) were purchased from Animal Research Farm in National Chia-Yi University (Taiwan), and were raised in a farm under the guidelines of Animal Care Committee of the Council of Agriculture, Taiwan. The experimental chickens were randomly divided into a control group and an experimental group (n=40/group), and each group was placed in a pen with a size of 6.5 m^2. Water was provided ad libitum for all of the experimental chickens.
Each of the experimental chickens was fed with a mixed feed for 12 weeks at a dose of 0.1 kg per day. The mixed feed supplied to the control group was made from a basal diet and a ferrous sulfate (20 g of Fe per 1000 kg of the mixed feed). The mixed feed supplied to the experimental group was made from the basal diet and the ferrous amino acid chelate prepared as described in the section, entitled “1. Preparation of ferrous amino acid chelate” of the “General Experimental Materials” (20 g of Fe per 1000 kg of the mixed feed).
Moreover, during supply of the mixed feed, fifteen chickens were randomly chosen at a designated time point to collect the feces from the cloaca thereof using cotton swabs.
In addition, the obtained feces were subjected to nucleic acid extraction with Taco™ DNA/RNA Extraction Kit (GeneReach Biotechnology Corp) according to the manufacturer's instructions. […]

[6] = test system: Coccidia; experiment: Coccidia infestation in chickens, microscopic observation of feces; format: in vivo, Taiwan black-feather country chickens; settings: Week 6
From the text: The experimental chickens were randomly divided into a control group and an experimental group (n=40/group), and each group was placed in a pen with a size of 6.5 m^2. Water was provided ad libitum for all of the experimental chickens. […] The mixed feed supplied to the control group was made from a basal diet and a ferrous sulfate (20 g of Fe per 1000 kg of the mixed feed). The mixed feed supplied to the experimental group was made from the basal diet and the ferrous amino acid chelate prepared as described in the section, entitled “1. […] Moreover, during supply of the mixed feed, fifteen chickens were randomly chosen at a designated time point to collect the feces from the cloaca thereof using cotton swabs. Coccidia infestation is determined by microscopic observation of the obtained feces sample.

[7] = Week 0 (before supply of the mixed feed)
[8] = age 4 weeks (at weaning, start of the mixed feed)
[9] = age 12 weeks, after 8 weeks of mixed feed (basal diet:iron source 1000:1)

Row | Substance | Enteropathogen infection, Escherichia coli (percentage of infection among 15 selected chickens) [1] | Body weight [2, 7] | ADG (average daily gain) [2] | FE (feed efficiency, ratio of total feed intake to total body weight) [2] | Body weight ([2]; Week 12 of mixed feed) | Enteropathogen infection, Clostridium perfringens (percentage of infection among 15 selected chickens) [3] | ADFI (average daily feed intake) [4] | ADG (average daily gain) [4] | FE (feed efficiency, ratio of ADFI to ADG) [4] | Body weight [4, 8] | Body weight [4, 9] | Total feed intake [4] | Enteropathogen infection, Salmonella spp. (percentage of infection among 15 selected chickens) [5] | Enteropathogen infection, Coccidia (percentage of infection among 15 selected chickens) [6]
1 | ferrous glycinate chelate [ferrous amino acid chelate] | 27% | 32.48 ± 3.49 g | 25.44 g/day per chicken | 3.59 | 2143.71 ± 250.23 g | 0% | 0.78 kg/day per piglet | 0.40 kg/day per piglet | 1.93 | 9.08 ± 0.94 kg | 32.84 ± 4.01 kg | 36,500 kg | 53% | 33%
2 | ferrous sulfate | 93% | 31.06 ± 2.94 g | 23.3 g/day per chicken | 3.88 | 1965 ± 194.44 g | 33% | 0.85 kg/day per piglet | 0.30 kg/day per piglet | 2.80 | 8.40 ± 1.17 kg | 28.00 ± 4.28 kg | 33,255 kg | 93% | 100%
